Like-named read-outs stand apart in the source and are kept apart here. Bridge positions count the residues as written; N and C are the ends. Square brackets hold non-standard residues; d marks the D form. Side chains are listed from the residue outwards. Ends that are not written are not given here. Peptide text beside a SMILES is read from it. * marks the point of attachment. PEG40kDa = 40 kDa polyethylene glycol; Ac‑Cys = acetylated cysteine; Carboxymethyl = O=C(O)C*; CH2CH2COOH = O=C(O)CC*; Aib = CC(C)(N)C(=O)O
How the values were obtained:
glucagon receptor [1] = target: T1, glucagon receptor (Homo sapiens, UniProt P47871); experiment: cell-based
T1 sequence (P47871 26-477): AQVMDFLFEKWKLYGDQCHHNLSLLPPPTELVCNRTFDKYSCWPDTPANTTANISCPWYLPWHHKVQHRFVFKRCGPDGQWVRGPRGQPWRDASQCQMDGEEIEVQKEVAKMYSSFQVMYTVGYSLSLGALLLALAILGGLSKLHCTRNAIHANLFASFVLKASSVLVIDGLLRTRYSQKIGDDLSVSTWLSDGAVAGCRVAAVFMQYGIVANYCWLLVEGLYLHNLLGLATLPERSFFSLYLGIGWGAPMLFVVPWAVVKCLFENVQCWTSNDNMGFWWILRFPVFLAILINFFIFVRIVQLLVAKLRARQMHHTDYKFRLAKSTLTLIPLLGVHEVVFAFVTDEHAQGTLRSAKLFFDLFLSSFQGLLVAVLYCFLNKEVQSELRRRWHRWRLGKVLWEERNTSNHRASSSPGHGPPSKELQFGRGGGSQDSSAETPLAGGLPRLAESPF
Source text: (§1) HEK293 cells co-transfected with the receptor and luciferase gene linked to a cAMP responsive element were employed for the bioassay.
(§2) All EC50s and IC50s are reported in the following examples in nM, unless indicated otherwise.

glucagon receptor [2] = target: T1, glucagon receptor; experiment: glucagon receptor binding; parameters: expressed in transfected cells; host or cells: HEK293
GLP-1 receptor = target: T2, GLP-1 receptor (Homo sapiens, UniProt P43220); experiment: cAMP induction at the GLP-1 receptor (agonist activity), firefly luciferase reporter assay in HEK293 cells; format: cell-based; conditions: Table 5; relative to standard
T2 construct: expressed in transfected cells; host or cells: HEK293
T2 sequence (P43220 24-463): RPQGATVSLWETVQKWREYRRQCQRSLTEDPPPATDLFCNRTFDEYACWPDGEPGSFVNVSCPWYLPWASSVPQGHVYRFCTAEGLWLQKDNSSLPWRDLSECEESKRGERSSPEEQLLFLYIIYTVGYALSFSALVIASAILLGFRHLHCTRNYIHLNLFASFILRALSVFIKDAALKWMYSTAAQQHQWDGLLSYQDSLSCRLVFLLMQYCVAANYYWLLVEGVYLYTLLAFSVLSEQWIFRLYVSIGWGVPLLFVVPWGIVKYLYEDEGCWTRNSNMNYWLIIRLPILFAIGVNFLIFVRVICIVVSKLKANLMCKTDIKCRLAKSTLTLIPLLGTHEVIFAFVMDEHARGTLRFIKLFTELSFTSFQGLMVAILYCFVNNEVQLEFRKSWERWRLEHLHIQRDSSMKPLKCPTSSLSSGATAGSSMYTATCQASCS
Source text: as §1, §2

glucagon receptor [3] = target: T1, glucagon receptor; experiment: cAMP induction at the glucagon receptor (agonist activity), luciferase reporter assay in HEK293 cells; format: cell-based; parameters: expressed in transfected cells; host or cells: HEK293; conditions: Table 5; for EC50: read-out: GR EC50; for GR relative activity: relative to standard
Source text: as §1, §2

GIP receptor = target: T3, GIP receptor (Homo sapiens, UniProt P48546); experiment: cAMP induction at the GIP receptor (agonist activity), luciferase reporter assay in HEK293 cells; format: cell-based; conditions: Table 5; relative to standard
T3 construct: expressed in transfected cells; host or cells: HEK293
T3 sequence (P48546 22-466): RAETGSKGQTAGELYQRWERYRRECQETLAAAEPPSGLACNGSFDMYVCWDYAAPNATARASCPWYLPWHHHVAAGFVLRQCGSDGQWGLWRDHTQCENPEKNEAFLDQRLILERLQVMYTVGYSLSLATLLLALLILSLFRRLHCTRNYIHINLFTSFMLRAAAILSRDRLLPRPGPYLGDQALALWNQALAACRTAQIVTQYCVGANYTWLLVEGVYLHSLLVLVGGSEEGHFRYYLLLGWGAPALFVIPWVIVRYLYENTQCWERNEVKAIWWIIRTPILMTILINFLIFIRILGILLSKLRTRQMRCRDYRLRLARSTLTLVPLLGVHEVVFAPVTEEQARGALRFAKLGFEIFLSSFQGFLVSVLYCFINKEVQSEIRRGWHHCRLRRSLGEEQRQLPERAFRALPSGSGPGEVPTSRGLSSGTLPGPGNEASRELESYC
Source text: as §1, §2

[4] = Table G, average ±STD of at least three experiments, same values as receptor binding in Table I, read-out: IC50
[5] = Table E, read-out: Receptor Binding IC50
[6] = Table H, same values as receptor binding in Table I, read-out: IC50

Compound: CSCC[C@H](NC(=O)[C@H](CC(C)C)NC(=O)[C@H](Cc1c[nH]c2ccccc12)NC(=O)[C@H](CCC(N)=O)NC(=O)[C@@H](NC(=O)[C@H](Cc1ccccc1)NC(=O)[C@H](CC(=O)O)NC(=O)[C@H](CCC(N)=O)NC(=O)[C@H](C)NC(=O)[C@H](CCCNC(=N)N)NC(=O)[C@H](CCCNC(=N)N)NC(=O)[C@H](CO)NC(=O)[C@H](CC(=O)O)NC(=O)[C@H](CC(C)C)NC(=O)[C@H](Cc1ccc(O)cc1)NC(=O)[C@H](CCCCN)NC(=O)[C@H](CO)NC(=O)[C@H](Cc1ccc(O)cc1)NC(=O)[C@H](CCCC(=O)O)NC(=O)[C@H](CO)NC(=O)[C@@H](NC(=O)[C@@H](N)Cc1ccccc1)[C@@H](C)O)C(C)C)C(=O)N[C@@H](CC(N)=O)C(=O)N[C@H](C(N)=O)[C@@H](C)O [(hGlu^9]Glucagon(aa6-29)-NH2] (HELM PEPTIDE1{F.T.S.[O=C(O)CCC[C@H](N[*:1])C(=O)[*:2]].Y.S.K.Y.L.D.S.R.R.A.Q.D.F.V.Q.W.L.M.N.T.[am]}$$$$V2.0; N-terminus assumed)
- Kb (glucagon receptor [1]): 537 nM
- cAMP pA2 (glucagon receptor [1]; Table I): 6.27 ± 0.11
- IC50 (glucagon receptor [2]; [4]): 163 ± 70.8 nM

Compound: CSCC[C@H](NC(=O)[C@H](CC(C)C)NC(=O)[C@H](Cc1c[nH]c2ccccc12)NC(=O)[C@H](CCC(N)=O)NC(=O)[C@@H](NC(=O)[C@H](Cc1ccccc1)NC(=O)[C@H](CC(=O)O)NC(=O)[C@H](CCC(N)=O)NC(=O)[C@H](C)NC(=O)[C@H](CCCNC(=N)N)NC(=O)[C@H](CCCNC(=N)N)NC(=O)[C@H](CO)NC(=O)[C@H](CC(=O)O)NC(=O)[C@H](CC(C)C)NC(=O)[C@H](Cc1ccc(O)cc1)NC(=O)[C@H](CCCCN)NC(=O)[C@H](CO)NC(=O)[C@H](Cc1ccc(O)cc1)NC(=O)[C@H](CSCC(=O)O)NC(=O)[C@H](CO)NC(=O)[C@@H](NC(=O)[C@@H](N)Cc1ccccc1)[C@@H](C)O)C(C)C)C(=O)N[C@@H](CC(N)=O)C(=O)N[C@H](C(N)=O)[C@@H](C)O [[(CSA-1)^9]Glucagon(aa6-29)-NII2, [C^9(SCH2COOH)]Glucagon(aa6-29)-NH2] (H-FTSC(Carboxymethyl)YSKYLDSRRAQDFVQWLMNT-NH2; N-terminus assumed)
- Kb (glucagon receptor [1]): 209 nM
- cAMP pA2 (glucagon receptor [1]; Table I): 6.68 ± 1.05
- IC50 (glucagon receptor [2]; [4]): 107 ± 5.37 nM

Compound: CSCC[C@H](NC(=O)[C@H](CC(C)C)NC(=O)[C@H](Cc1c[nH]c2ccccc12)NC(=O)[C@H](CCC(N)=O)NC(=O)[C@@H](NC(=O)[C@H](Cc1ccccc1)NC(=O)[C@H](CC(=O)O)NC(=O)[C@H](CCC(N)=O)NC(=O)[C@H](C)NC(=O)[C@H](CCCNC(=N)N)NC(=O)[C@H](CCCNC(=N)N)NC(=O)[C@H](CO)NC(=O)[C@H](CC(=O)O)NC(=O)[C@H](CC(C)C)NC(=O)[C@H](Cc1ccc(O)cc1)NC(=O)[C@H](CCCCN)NC(=O)[C@H](CO)NC(=O)[C@H](Cc1ccc(O)cc1)NC(=O)[C@H](CSCCC(=O)O)NC(=O)[C@H](CO)NC(=O)[C@@H](NC(=O)[C@@H](N)Cc1ccccc1)[C@@H](C)O)C(C)C)C(=O)N[C@@H](CC(N)=O)C(=O)N[C@H](C(N)=O)[C@@H](C)O [[(CSA-2)^9]Glucagon(aa6-29)-NH2, [C^9(SCH2CH2COOH)]Glucagon(aa6-29)-NH2] (H-FTSC(CH2CH2COOH)YSKYLDSRRAQDFVQWLMNT-NH2; N-terminus assumed)
- Kb (glucagon receptor [1]): 229 nM
- cAMP pA2 (glucagon receptor [1]; Table I): 6.64 ± 0.29
- IC50 (glucagon receptor [2]; [4]): 146 ± 36.9 nM

Compound: CC(C)C[C@H](NC(=O)[C@H](Cc1ccc(O)cc1)NC(=O)[C@H](CCCCN)NC(=O)[C@H](CO)NC(=O)[C@H](Cc1ccc(O)cc1)NC(=O)[C@H](CCS(=O)(=O)O)NC(=O)[C@H](CO)NC(=O)[C@@H](NC(=O)[C@H](Cc1ccccc1)NC(=O)[C@@H](NC(=O)CNC(=O)[C@H](CCC(N)=O)NC(=O)[C@@H](N)CO)[C@@H](C)O)[C@@H](C)O)C(=O)N[C@@H](CC(=O)O)C(=O)N[C@@H](CO)C(=O)N[C@@H](CCCNC(=N)N)C(=O)N[C@@H](CCCNC(=N)N)C(=O)N[C@@H](C)C(=O)N[C@@H](CCC(N)=O)C(=O)N[C@@H](CC(=O)O)C(=O)N[C@@H](Cc1ccccc1)C(=O)N[C@H](C(=O)N[C@@H](CCC(N)=O)C(=O)N[C@@H](Cc1ccccc1)C(=O)N[C@@H](CC(C)C)C(=O)N[C@@H](CC(C)C)C(=O)N[C@@H](CC(N)=O)C(=O)N[C@H](C(N)=O)[C@@H](C)O)C(C)C [[desIIis^1, hCys^9(SO3—), Phe^25, Leu^27]Glucagon-NH2] (HELM PEPTIDE1{S.Q.G.T.F.T.S.[O=C([C@H](CCS(=O)(=O)O)N[*:1])[*:2]].Y.S.K.Y.L.D.S.R.R.A.Q.D.F.V.Q.F.L.L.N.T.[am]}$$$$V2.0; N-terminus assumed)
- IC50 (glucagon receptor [2]; [5]): 13.9 ± 0.37 nM

Compound: CSCC[C@H](NC(=O)[C@H](CC(C)C)NC(=O)[C@H](Cc1c[nH]c2ccccc12)NC(=O)[C@H](CCC(N)=O)NC(=O)[C@@H](NC(=O)[C@H](Cc1ccccc1)NC(=O)[C@H](CC(=O)O)NC(=O)[C@H](CCC(N)=O)NC(=O)[C@H](C)NC(=O)[C@H](CCCNC(=N)N)NC(=O)[C@H](CCCNC(=N)N)NC(=O)[C@H](CO)NC(=O)[C@H](CC(=O)O)NC(=O)[C@H](CC(C)C)NC(=O)[C@H](Cc1ccc(O)cc1)NC(=O)[C@H](CCCCN)NC(=O)[C@H](CO)NC(=O)[C@H](Cc1ccc(O)cc1)NC(=O)[C@H](CCS(=O)(=O)O)NC(=O)[C@H](CO)NC(=O)[C@@H](NC(=O)[C@H](Cc1ccccc1)NC(=O)[C@@H](NC(=O)CNC(=O)[C@H](CCC(N)=O)NC(=O)[C@@H](N)CO)[C@@H](C)O)[C@@H](C)O)C(C)C)C(=O)N[C@@H](CC(N)=O)C(=O)N[C@H](C(N)=O)[C@@H](C)O [[hCys^9(SO3H)]Glucagon(aa2-29)-NH2]
- IC50 (glucagon receptor [2]; [6]): 13.2 ± 1 nM

Compound: CSCC[C@H](NC(=O)[C@H](CC(C)C)NC(=O)[C@H](Cc1c[nH]c2ccccc12)NC(=O)[C@H](CCC(N)=O)NC(=O)[C@@H](NC(=O)[C@H](Cc1ccccc1)NC(=O)[C@H](CC(=O)O)NC(=O)[C@H](CCC(N)=O)NC(=O)[C@H](C)NC(=O)[C@H](CCCNC(=N)N)NC(=O)[C@H](CCCNC(=N)N)NC(=O)[C@H](CO)NC(=O)[C@H](CC(=O)O)NC(=O)[C@H](CC(C)C)NC(=O)[C@H](Cc1ccc(O)cc1)NC(=O)[C@H](CCCCN)NC(=O)[C@H](CO)NC(=O)[C@H](Cc1ccc(O)cc1)NC(=O)[C@H](CCS(=O)(=O)O)NC(=O)[C@H](CO)NC(=O)[C@@H](NC(=O)[C@@H](N)Cc1ccccc1)[C@@H](C)O)C(C)C)C(=O)N[C@@H](CC(N)=O)C(=O)N[C@H](C(N)=O)[C@@H](C)O [[hCys^9(SO3H)]Glucagon(aa6-29)-NH2] (HELM PEPTIDE1{F.T.S.[O=C([C@H](CCS(=O)(=O)O)N[*:1])[*:2]].Y.S.K.Y.L.D.S.R.R.A.Q.D.F.V.Q.W.L.M.N.T.[am]}$$$$V2.0)
- Kb (glucagon receptor [1]): 69.2 nM
- cAMP pA2 (glucagon receptor [1]; Table I): 7.16 ± 0.51
- IC50 (glucagon receptor [1]; cAMP IC50(nM), Table H): 133 nM
- IC50 (glucagon receptor [2]; [6]): 59.1 ± 18.1 nM

Compound: FTSEYSKYLDSRRAQDFVQWLMNT-NH2 [[Glu^9]Glucagon(aa6-29)-NH2]
- Kb (glucagon receptor [1]): 69.2 nM
- cAMP (I/A)50 (glucagon receptor [1]): 486
- cAMP pA2 (glucagon receptor [1]): 7.16 ± 0.27
- IC50 (glucagon receptor [2]; [4]): 36.4 ± 5.23 nM

Compound: H-LTFTSEYSKYLDSRRAQDFVQWLMNT-NH2 [[Leu^4, Glu^9]Glucagon(aa4-29)-NH2]
- IC50 (glucagon receptor [2]; [4]): 36.4 ± 8.69 nM

Compound: SQGTTSDYSKYLDSRRAQDFVQWLMNT-NH2 [[desHis^1, desPhe^6]Glucagon-NH2]
- IC50 (glucagon receptor [2]; [5]): 130 ± 44.9 nM

Compound: TSEYSKYLDSRRAQDFVQWLMNT-NH2 [[Glu^9]Glucagon(aa7-29)-NH2]
- IC50 (glucagon receptor [2]; [4]): > 10000 nM

Compound: mt-226: as mt-218 but modified Lys at position 40 and Asn at position 24; SEQ ID NO: 23 (Y[Aib]QGTFTSDYSIYLDEQAAKEFVNWLLAGGPSSGAPPPSK([Glu-Ac‑Cys-PEG40kDa])-NH2; lactam 16-20)
- GLP-1R relative activity (GLP-1 receptor): 29.90%
- EC50 (glucagon receptor [3]): 3.46 nM
- GR relative activity (glucagon receptor [3]): 1.56%
- GIPR relative activity (GIP receptor): 1.16%

Compound: mt-227: as mt-219 but modified Lys at position 40 and Asn at position 24; SEQ ID NO: 360 (Y[Aib]QGTFTSDYSIYLDEQAAKEFVNWLLAGGPSSGAPPPSK([Arg-Ac‑Cys-PEG40kDa])-NH2; lactam 16-20)
- GLP-1R relative activity (GLP-1 receptor): 36.25%
- EC50 (glucagon receptor [3]): 4.24 nM
- GR relative activity (glucagon receptor [3]): 1.27%
- GIPR relative activity (GIP receptor): 1.29%

Compound: mt-228: as mt-220 but modified Lys at position 40 and Asn at position 24; SEQ ID NO: 24 (Y[Aib]QGTFTSDYSIYLDEQAAKEFVNWLLAGGPSSGAPPPSK([Phe-Ac‑Cys-PEG40kDa])-NH2; lactam 16-20)
- GLP-1R relative activity (GLP-1 receptor): 19.86%
- EC50 (glucagon receptor [3]): 5.36 nM
- GR relative activity (glucagon receptor [3]): 1.01%
- GIPR relative activity (GIP receptor): 0.75%

From patent US20140107021A1 (priority 2010, published 2014)
